Patent US8268848B2, “Cyclopropane compound” (Eisai R&D Management Co., Ltd., priority 2010, dated 2012)
Like-named read-outs stand apart in the source and are kept apart here.

How the values were obtained:
OX1 = target: T1, OX1 (Homo sapiens, UniProt O43613); assay: Measurement of orexin receptor-binding ability ([125I]-OX-A, cell membranes, OX1); design: expressed in transfected cells; host or cells: CHO cells (membrane preparation)
T1 sequence (O43613 1-425): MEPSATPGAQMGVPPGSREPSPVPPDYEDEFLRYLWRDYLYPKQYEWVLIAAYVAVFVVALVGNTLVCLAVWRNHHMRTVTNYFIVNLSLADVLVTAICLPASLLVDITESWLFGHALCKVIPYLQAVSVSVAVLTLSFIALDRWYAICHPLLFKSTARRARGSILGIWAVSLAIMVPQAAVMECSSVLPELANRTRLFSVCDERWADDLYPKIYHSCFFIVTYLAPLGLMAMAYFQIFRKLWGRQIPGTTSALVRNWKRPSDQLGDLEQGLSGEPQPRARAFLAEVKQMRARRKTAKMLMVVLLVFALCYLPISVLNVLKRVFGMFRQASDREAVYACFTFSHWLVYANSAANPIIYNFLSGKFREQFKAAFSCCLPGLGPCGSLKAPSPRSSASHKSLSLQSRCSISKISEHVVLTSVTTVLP

OX2 = target: T2, OX2 (Homo sapiens, UniProt O43614); assay: Measurement of orexin receptor-binding ability ([125I]-OX-A, cell membranes, OX2); design: expressed in transfected cells; host or cells: CHO cells (membrane preparation); details: membranes of recombinant CHO cells expressing OX2, 0.2 nM [125I]-OX-A
T2 sequence (O43614 1-444): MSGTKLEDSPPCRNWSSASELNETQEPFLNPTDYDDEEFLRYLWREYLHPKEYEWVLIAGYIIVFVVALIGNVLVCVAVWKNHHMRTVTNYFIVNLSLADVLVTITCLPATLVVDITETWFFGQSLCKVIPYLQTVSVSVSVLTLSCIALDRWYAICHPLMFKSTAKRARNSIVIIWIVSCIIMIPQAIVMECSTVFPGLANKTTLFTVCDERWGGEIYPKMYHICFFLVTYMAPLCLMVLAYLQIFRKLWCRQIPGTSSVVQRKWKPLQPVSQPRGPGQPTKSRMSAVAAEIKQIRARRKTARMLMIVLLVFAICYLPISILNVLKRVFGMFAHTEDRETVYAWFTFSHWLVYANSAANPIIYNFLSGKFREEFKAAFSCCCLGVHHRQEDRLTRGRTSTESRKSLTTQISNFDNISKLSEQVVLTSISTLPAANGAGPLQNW

mice (C57BL/6NCrlCrLj) = assay: Sleep experiment (EEG/EMG) in mice; assay type: in vivo; details: 10 mg/kg
Protocol: As a method for measuring the influence of the present compound on sleep time, electroencephalogram (EEG) and electromyogram (EMG) measurements were carried out in mice (C57BL/6NCrlCrLj).
In order to measure brain waves and muscle signals, EEG and EMG electrode implantation was performed on individual mice, and the mice were then housed in a state in which they could freely move and habituate in individual recording cages for 1 week or longer. Thereafter, amplified EEG and EMG signals were digitally recorded.
Mice received either oral administration of vehicle or test compound in vehicle, after which sleep/wake behavior of mice was recorded for 3 hours.
For sleep analysis, automatic analysis software from Kissei Comtec Co., Ltd. was used to analyze EEG frequency and EMG activity signals in detail and to determine sleep and wake states. Thereafter, accumulated sleeping time over 3 hours was calculated.
The effect of the compound to increase sleep time was evaluated as the difference between sleeping time on the vehicle-administration day and the sleep time on the subsequent drug-administration day.
The minimum effective dose (MED; mg/kg) was obtained from accumulated sleep time of mice with three hours after the administration.

[1] = mice, oral administration, difference to vehicle day, 3 hours
[2] = membranes of recombinant CHO cells expressing OX1, 0.2 nM [125I]-OX-A, read-out: OX1 (IC50)

SMILES | IC50 (OX1) | IC50 (OX2; OX2 (IC50) nM) | Sleep extended time 10 mg/kg (min/3 hrs) (mice (C57BL/6NCrlCrLj); [1]) | IC50 (OX1; [2]) | IC50 (OX2; read-out: OX2 (IC50)) | Sleep extended time 10 mg/kg (min/3 hrs) (mice (C57BL/6NCrlCrLj); po, 3 h)
Cc1ncc(OC[C@@]2(c3cccc(F)c3)C[C@H]2C(=O)Nc2ccc(C#N)cn2)c(C)n1 [Example 96, (1R,2S)-N-(5-cyanopyridin-2-yl)-2-{[(2,4-dimethylpyrimidin-5-yl)oxy]methyl}-2-(3-fluorophenyl)cyclopropanecarboxamide] | 32 nM | 5 nM | 12.1 min/3 hrs | – | – | –
Cc1ncc(OC[C@@]2(c3ccc(F)cc3)C[C@H]2C(=O)Nc2ccc(F)cc2)c(C)n1 [Example 105, (1R,2S)-N,2-bis(4-fluorophenyl)-2-{[(2,4-dimethylpyrimidin-5-yl)oxy]methyl}-N,2-bis(4-fluorophenyl)cyclopropanecarboxamide] | 195 nM | 18 nM | 14.3 min/3 hrs | – | – | –
COc1cc(NC(=O)[C@@H]2C[C@@]2(COc2cnc(C)nc2C)c2ccccc2)ncc1F [Example 73, (1R,2S)-2-{[(2,4-dimethylpyrimidin-5-yl)oxy]methyl}-N-(5-fluoro-4-methoxypyridin-2-yl)-2-phenylcyclopropanecarboxamide] | – | – | – | 3.4 nM | 5.7 nM | 22.7 min/3 hrs
Cc1ncc(OC[C@@]2(c3cc(F)cc(F)c3)C[C@H]2C(=O)Nc2ccc(F)cc2)c(C)n1 [Example 130, (1R,2S)-2-(3,5-difluorophenyl)-2-{[(2,4-dimethylpyrimidin-5-yl)oxy]methyl}-N-(4-fluorophenyl)cyclopropanecarboxamide] | – | – | – | 22 nM | 4 nM | 24.2 min/3 hrs
COCc1nc(C)ncc1OC[C@@]1(c2cccc(F)c2)C[C@H]1C(=O)Nc1ccc(F)cn1 [Example 191, (1R,2S)-2-(3-fluorophenyl)-N-(5-fluoropyridin-2-yl)-2-[(4-methoxymethyl-2-methylpyrimidin-5-yl)oxymethyl]cyclopropanecarboxamide] | 1 nM | 1 nM | 41.8 min/3 hrs | – | – | –
COCc1nc(C)ncc1OC[C@@]1(c2cccc(F)c2)C[C@H]1C(=O)Nc1cc(C)c(F)cn1 [Example 199, (1R,2S)-N-(5-fluoro-4-methylpyridin-2-yl)-2-(3-fluorophenyl)-2-{[(4-methoxymethyl-2-methylpyrimidin-5-yl)oxy]methyl}cyclopropanecarboxamide] | – | – | – | 2 nM | 2 nM | 36.2 min/3 hrs
COCc1nc(C)ncc1OC[C@@]1(c2ccccc2)C[C@H]1C(=O)Nc1ccc(F)cn1 [Example 141, (1R,2S)-N-(5-fluoropyridin-2-yl)-2-{[(4-(methoxymethyl)-2-methylpyrimidin-5-yl)oxy]methyl}-2-phenylcyclopropanecarboxamide] | – | – | – | 9 nM | 1.3 nM | 28.7 min/3 hrs
COc1cc(NC(=O)[C@@H]2C[C@@]2(COc2cnc(C)nc2C)c2cccc(F)c2)ncc1F [Example 94, (1R,2S)-2-{[(2,4-dimethylpyrimidin-5-yl)oxy]methyl}-N-(5-fluoro-4-methoxypyridin-2-yl)-2-(3-fluorophenyl)cyclopropanecarboxamide] | 2.8 nM | 2.3 nM | – | – | – | –
COCc1nc(C)ncc1OC[C@@]1(c2ccc(F)c(F)c2)C[C@H]1C(=O)Nc1ccccn1 [Example 211, (1R,2S)-2-(3,4-difluorophenyl)-2-{[(4-methoxymethyl-2-methylpyrimidin-5-yl)oxy]methyl}-N-(pyridin-2-yl)cyclopropanecarboxamide] | 20 nM | 4 nM | – | – | – | –
COc1cc(NC(=O)[C@@H]2C[C@@]2(COc2cnc(C)nc2C)c2ccc(F)cc2)ncc1F [Example 104] | – | – | – | 4 nM | 4.3 nM | –
COCc1nc(C)ncc1OC[C@@]1(c2ccc(F)c(F)c2)C[C@H]1C(=O)Nc1cc(C)c(F)cn1 [Example 212, (1R,2S)-2-(3,4-difluorophenyl)-N-(5-fluoro-4-methylpyridin-2-yl)-2-{[(4-methoxymethyl-2-methylpyrimidin-5-yl)oxy]methyl}cyclopropanecarboxamide] | – | – | – | 4 nM | 7 nM | –
Cc1ncc(OCC2(c3ccccc3C)CC2C(=O)Nc2cccnc2)c(C)n1 (centres unmarked) [Example 180] | – | – | – | 231 nM | 33 nM | –
COCc1nc(C)ncc1OC[C@@]1(c2cc(F)cc(F)c2)C[C@H]1C(=O)Nc1ccccn1 [Example 218, (1R,2S)-2-(3,5-difluorophenyl)-2-{[(4-methoxymethyl-2-methylpyrimidin-5-yl)oxy]methyl}-N-(pyridin-2-yl)cyclopropanecarboxamide] | – | – | – | 10 nM | 3 nM | –
COCc1nc(C)ncc1OC[C@@]1(c2ccccc2)C[C@H]1C(=O)Nc1nc(C)cs1 [Example 142] | – | – | – | 331 nM | 36 nM | –
Cc1ncc(OC[C@@]2(c3ccccc3)C[C@H]2C(=O)Nc2ccnc(C#N)c2)c(C)n1 [Example 41, (1R,2S)-N-(2-cyanopyridin-4-yl)-2-{[(2,4-dimethylpyrimidin-5-yl)oxy]methyl}-2-phenylcyclopropanecarboxamide] | – | – | – | 125 nM | 8 nM | –
CCc1nc(C)ncc1OC[C@@]1(c2ccc(F)cc2)C[C@H]1C(=O)Nc1cc(Cl)ccn1 [Example 247, (1R,2S)-N-(4-chloropyridin-2-yl)-2-{[(4-ethyl-2-methylpyrimidin-5-yl)oxy]methyl}-2-(4-fluorophenyl)cyclopropanecarboxamide] | – | – | – | 22 nM | 3 nM | –
Cc1ncc(OC[C@@]2(c3cccc(F)c3)C[C@H]2C(=O)Nc2ccc(F)cn2)c(CO)n1 [Example 286, (1R,2S)-2-(3-fluorophenyl)-N-(5-fluoropyridin-2-yl)-2-{[(4-hydroxymethyl-2-methylpyrimidin-5-yl)oxy]methyl}-2-(3-fluorophenyl)cyclopropanecarboxamide] | > 200 nM | 4.5 nM | – | – | – | –
Cc1ncc(OC[C@@]2(c3cccc(F)c3)C[C@H]2C(=O)Nc2ccc(F)cc2)c(C)n1 [Example 92, (1R,2S)-2-{[(2,4-dimethylpyrimidin-5-yl)oxy]methyl}-2-(3-fluorophenyl)-N-(4-fluorophenyl)cyclopropanecarboxamide] | 23 nM | 8 nM | – | – | – | –
Cc1ncc(OC[C@@]2(c3ccccc3)C[C@H]2C(=O)Nc2cccc(S(C)(=O)=O)c2)c(C)n1 [Example 29] | – | – | – | 459 nM | 55 nM | –
COc1ncc(OC[C@@]2(c3ccccc3)C[C@H]2C(=O)Nc2ccc(C#N)cn2)c(C)n1 [Example 127, (1R,2S)-N-(5-cyanopyridin-2-yl)-2-{[(2-methoxy-4-methylpyrimidin-5-yl)oxy]methyl}-2-phenylcyclopropanecarboxamide] | – | – | – | 1100 nM | 80 nM | –
